The structures appear in SMILES notation. A value given as a limit tells only on which side of the number the result lay.

This is an account of results in the supplement of paper PMC3493320.

This test has as its system NCI-H295R. The test is described as follows: IC50 (antiproliferative, ATP content). The settings on record: 48 h. The method in brief:
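Adrenocortical carcinoma cells in 1536-well plates (1500 per well, serum-free DMEM plus ITS, overnight culture) were exposed for 48 h at 37 °C, 5% CO2 to pin-transferred compounds at 8 final concentrations ranging 0.6 nM to 46 µM. ATP content was then read as CellTiter-Glo luminescence and normalised to vehicle and positive-control wells. The IC50 came from logistic curve fits, and any compound lacking a concentration response was recorded as above the top dose.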
The term IC50 denotes the midpoint of a concentration-inhibition curve. Read a low IC50 as greater potency in that assay. The molecule `COc1cnc(NS(=O)(=O)c2ccc(N)cc2)nc1` showed an IC50 of over 46 µM.

As for `C=CC[N+]1([C@H]2C[C@H]3[C@@H]4CC[C@H]5C[C@H](O)[C@@H](N6CCOCC6)C[C@]5(C)[C@H]4CC[C@]3(C)[C@H]2OC(C)=O)CCCC1.[Br-]`, the IC50 was over 46 µM. `CCCCCCCCCCCCCCCCCCOC[C@H](COP(=O)([O-])OCC[N+](C)(C)C)OC` registered an IC50 of over 46 µM.

`CN(C)C(=O)COC(=O)Cc1ccc(OC(=O)c2ccc(NC(=N)N)cc2)cc1.CS(=O)(=O)O` registered an IC50 of over 46 µM. The molecule `CC(C)(O/N=C(\C(=O)N[C@@H]1C(=O)N2C(C(=O)[O-])=C(C[n+]3ccccc3)CS[C@H]12)c1csc(N)n1)C(=O)O.O.O.O.O.O` returned an IC50 of over 46 µM.

In turn, `O=[N+]([O-])c1ccc(F)c([N+](=O)[O-])c1` had an IC50 of over 46 µM. In the case of `O=C(O)c1ccccc1OP(=O)(O)O` it was over 46 µM; in that of `NC(N)=O`, over 46 µM; in that of `Cl.NCCO/C=C/[C@H](N)C(=O)O`, over 46 µM. The result for `Cc1ccc(S(=O)(=O)NC(=O)NC2CCCC2)cc1` reads over 46 µM; that for `O=C(Cn1ccnc1[N+](=O)[O-])NCCO`, over 46 µM. Consider `Cl.c1cc2c(c(N3CCNCC3)c1)OCCO2`, for which the half-maximal inhibitory concentration (IC50) is over 46 µM.

`C[C@@H]1C[C@H]2[C@@H]3CCC4=CC(=O)C=C[C@]4(C)[C@@]3(F)[C@@H](O)C[C@]2(C)[C@@]1(O)C(=O)COC(=O)c1cccc(S(=O)(=O)[O-])c1.[Na+]` yielded an IC50 of over 46 µM. Turning to `CCOc1ccc(/N=C(\C)Nc2ccc(OCC)cc2)cc1`, the IC50 was over 46 µM.

In the case of `CCC(C(=O)OCCN(CC)CC)c1ccccc1` (stereo unspecified), the IC50 is over 46 µM. The result for `COc1ccc(/C=C/C(=O)Nc2ccccc2C(=O)O)cc1OC` reads over 46 µM; that for `CC(C)CN(C[C@@H](O)[C@H](Cc1ccccc1)NC(=O)O[C@H]1CO[C@H]2OCC[C@H]21)S(=O)(=O)c1ccc(N)cc1`, over 46 µM; that for `O=C1[C@H]([C@H](C)C)CC[C@@H](C)C1`, over 46 µM. The result for `CN(C)[C@@H]1C(O)=C(C(N)=O)C(=O)[C@@]2(O)C(O)=C3C(=O)c4c(O)ccc(Cl)c4[C@@](C)(O)[C@H]3C[C@@H]12.Cl` reads over 46 µM; that for `CC(C)(C)CC(C)(C)c1cc(Cc2cc(C(C)(C)CC(C)(C)C)cc(-n3nc4ccccc4n3)c2O)c(O)c(-n2nc3ccccc3n2)c1`, over 46 µM; that for `CCCC(C)(COC(N)=O)COC(=O)NC1CC1` (stereo unspecified), over 46 µM. For the molecule `Cc1ccc(C(C)C)cc2c(C)ccc1-2`, the IC50 is over 46 µM. Consider `Nc1nccs1`, for which the IC50 was over 46 µM.

Molecule `CCN1C[C@]2(COC)[C@H](O)C[C@H](OC)[C@@]34[C@@H]5C[C@@]6(O)[C@H](OC(=O)c7ccccc7)[C@@H]5[C@@](OC(C)=O)([C@@H]([C@H](OC)[C@H]23)[C@H]14)[C@@H](O)[C@@H]6OC` displayed an IC50 of over 46 µM.

Molecule `Nc1ccc(S(=O)(=O)NCc2ccccc2)cc1` registered an IC50 of over 46 µM.

Take `Cn1c([N+](=O)[O-])cnc1COC(N)=O`: the IC50 is over 46 µM. The result for `O=C([C@@H](N(C)[C@]([C@H](CCC4)N4C([C@@H](CC)N5)=O)=O)CC2=CC=CC=C2)N(CCC1=O)C(C1)C(N[C@H](C(OC(C)[C@H](NC(C6=NC=CC=C6O)=O)C5=O)=O)C3=CC=CC=C3)=O` (stereo partly specified) reads over 46 µM; that for `O=C1c2ccccc2C(=O)c2c1ccc(O)c2O`, over 46 µM. Consider `CC1CC(O)CC(C)(C)C1` (stereo unspecified), for which the IC50 was over 46 µM. In the case of `CC(=O)N(CC(O)CN(C(C)=O)c1c(I)c(C(=O)NCC(O)CO)c(I)c(C(=O)NCC(O)CO)c1I)c1c(I)c(C(=O)NCC(O)CO)c(I)c(C(=O)NCC(O)CO)c1I` (stereo unspecified) it was over 46 µM; in that of `COc1cc(OC)cc(OC)c1`, over 46 µM.

`C=CCc1ccccc1OCC(O)CNC(C)C` (stereo unspecified) showed an IC50 of over 46 µM. `Cc1cc(C)cc(OCC2CNC(=O)O2)c1` (stereo unspecified) yielded an IC50 of over 46 µM.

Turning to `CC[C@@H](CO)NC(=O)[C@@H]1C=C2c3cccc4c3c(cn4C)C[C@H]2N(C)C1`, the IC50 was over 46 µM. In turn, `CC1=C(C)C(=O)C(C(CCCCCC(=O)O)c2ccccc2)=C(C)C1=O` (stereo unspecified) showed an IC50 of over 46 µM. The result for `O=[C@@](OC)[C@H]([C@H]3OC)[C@@]2([H])C[C@](N4C[C@]([H])2C[C@H]3OC(C=CC6=CC(OC)=C(OC)C(OC)=C6)=O)([H])C1=C(CC4)C(C=C5)=C(C=C5OC)N1` reads over 46 µM.

With `N[C@@H](COP(=O)(O)O)C(=O)O`, the IC50 was over 46 µM. The result for `Cn1c(=O)c2c(ncn2CC2OCCO2)n(C)c1=O` reads over 46 µM; that for `COc1ccc2c3c1O[C@H]1[C@@H](O)C=C[C@H]4[C@@H](C2)NCC[C@@]341`, over 46 µM; that for `COc1c(N2CCNC(C)C2)c(F)cc2c(=O)c(C(=O)O)cn(C3CC3)c12` (stereo unspecified), over 46 µM. In the case of `O=C(O)COC(=O)Cc1ccccc1Nc1c(Cl)cccc1Cl` it was over 46 µM; in that of `N=C(N)NCc1cccc(I)c1.N=C(N)NCc1cccc(I)c1.O=S(=O)(O)O`, over 46 µM; in that of `COc1ccc(C=CC(=O)OCCC(C)C)cc1`, over 46 µM. Molecule `CC[N+](CC)(CC)CC.[Cl-]` gave an IC50 of over 46 µM. For `[Br-].O.C[N+]2(C1C[C@H](CC2CC1)OC(=O)C(CO)c3ccccc3)C(C)C` (stereo unspecified), the 50% inhibitory concentration (IC50) is over 46 µM. The result for `C1[C@@H]([C@H]([C@@H]([C@H]([N@]1CCO)CO)O)O)O` reads over 46 µM. Take `[Cl][In]([Cl])[Cl]`: the IC50 is over 46 µM. For `O=C1NCCN1c1ncc([N+](=O)[O-])s1`, the IC50 was over 46 µM. Molecule `N/C(N)=N/C1=NC(CSCCC(N)=NS(N)(=O)=O)=CS1` displayed a half-inhibitory concentration (IC50) of over 46 µM.

Consider `C[C@]12C=CC(=O)C=C1CC[C@H]1[C@@H]3C[C@@H](O)[C@](O)(C(=O)CO)[C@@]3(C)C[C@H](O)[C@@]12F`, for which the half-inhibitory concentration (IC50) is over 46 µM.

In turn, `Nc1ccc(C(=O)NCC(=O)O)cc1` came in with an IC50 of over 46 µM. `COc1cccc([C@@]2(O)CCCC[C@@H]2CN(C)C)c1`: the IC50 is over 46 µM. In the case of `CN[C@@H]1[C@@H](O)[C@@H](O[C@@H]2[C@@H](O)[C@H](OC3OC(CN)=CCC3N)[C@@H](N)C[C@H]2N)OC[C@]1(C)O.CN[C@@H]1[C@@H](O)[C@@H](O[C@@H]2[C@@H](O)[C@H](OC3OC(CN)=CCC3N)[C@@H](N)C[C@H]2N)OC[C@]1(C)O.O=S(=O)(O)O.O=S(=O)(O)O.O=S(=O)(O)O.O=S(=O)(O)O.O=S(=O)(O)O` (stereo partly specified) it was over 46 µM; in that of `C[C@@H](Cc1ccccc1)NCCC(c1ccccc1)c1ccccc1.C[C@H](O)C(=O)O`, over 46 µM; in that of `O=C(O)Cc1nn(Cc2ccc(Br)cc2F)c(=O)c2ccccc12`, over 46 µM. The result for `Cc1cc2c(OCC(CNC(C)(C)C)OC(=O)c3ccccc3)cccc2[nH]1` (stereo unspecified) reads over 46 µM; that for `CC(C)(C)C(=O)C(Oc1ccc(Cl)cc1)n1ccnc1` (stereo unspecified), over 46 µM; that for `CCN(CC)CC1CCCCN1CC(=O)N1c2ccccc2C(=O)Nc2cccnc21` (stereo unspecified), over 46 µM. Consider `CCCNC(=O)NS(=O)(=O)c1ccc(Cl)cc1`, for which the IC50 is over 46 µM. The result for `Cc1ncc(C[n+]2csc(CCOP(=O)(O)OP(=O)(O)O)c2C)c(N)n1.[Cl-]` reads over 46 µM; that for `CCCN(CCc1cccs1)[C@H]1CCc2c(O)cccc2C1`, over 46 µM; that for `Cc1ncc(C[n+]2csc(CCOP(=O)(O)O)c2C)c(N)n1.[Cl-]`, over 46 µM.

In turn, `O=C2N1[C@]([C@@]([H])2NC(CC3=CC=CC=C3)=O)([H])SC(C)(C)[C@@H]1[C@@]([O-])=O.[K+]` returned an IC50 of over 46 µM. `O[C@](CN2N=CN=C2)([C@H]([C@@]3=C(F)C=NC=N3)C)C1=CC=C(F)C=C1F` displayed an IC50 of over 46 µM. For the molecule `CC(C)N1CCN(c2ccc(OC[C@H]3COC(Cn4cncn4)(c4ccc(Cl)cc4Cl)O3)cc2)CC1` (stereo partly specified), the IC50 is over 46 µM. The result for `Cl.O=C(c1ccc(F)cc1)C1CCN(CCn2c(=S)[nH]c3ccccc3c2=O)CC1` reads over 46 µM; that for `CC=CC=NNC(=O)c1ccncc1`, over 46 µM; that for `CN(N=O)C(=O)N[C@@H]1[C@@H](O)[C@H](O)[C@@H](CO)O[C@@H]1O`, over 46 µM. Regarding `COc1c(N2C[C@@H]3CCCN[C@@H]3C2)c(F)cc2c(=O)c(C(=O)O)cn(C3CC3)c12.Cl`, the IC50 was over 46 µM.

Regarding `CCCCCCCCCCCCOCCCN`, the IC50 is over 46 µM. In the case of `CCOC(=O)/C=C(C)/C=C/C[C@@H](C)CCCC(C)C` it was over 46 µM.

Turning to `Cl.NC(CO)C(=O)NNCc1ccc(O)c(O)c1O` (stereo unspecified), the IC50 is over 46 µM. In the case of `O=C(O)Cc1csc(-c2ccc(Cl)cc2)n1` it was over 46 µM; in that of `Nc1nc2c(ncn2COC(CO)CO)c(=O)[nH]1`, over 46 µM; in that of `O=C(O)CCC(=O)c1ccc(-c2ccccc2)cc1`, over 46 µM. `CC(NNC(=O)c1ccccc1)c1ccccc1` (stereo unspecified) gave an IC50 of over 46 µM. Turning to `O=C(O)c1ccccc1-c1ccc(C(F)(F)F)cc1`, the IC50 was over 46 µM. In the case of `CCC1=C(C)CN(C(=O)NCCc2ccc(S(=O)(=O)NC(=O)N[C@H]3CC[C@H](C)CC3)cc2)C1=O` it was over 46 µM. `CC[N+](C)(CC)CCOC(=O)C1c2ccccc2Oc2ccccc21.[Br-]`: the IC50 is over 46 µM.

On to `CCN(CC)CCOc1ccccc1OC`, for which the IC50 was over 46 µM.

In turn, `CC[C@H]1OC(=O)C[C@@H](O)[C@H](C)[C@@H](O[C@@H]2O[C@H](C)[C@@H](O[C@H]3C[C@@](C)(O)[C@@H](O)[C@H](C)O3)[C@H](N(C)C)[C@H]2O)[C@@H](CC=O)C[C@@H](C)C(=O)/C=C/C(C)=C/[C@@H]1CO[C@@H]1O[C@H](C)[C@@H](O)[C@@H](OC)[C@H]1OC.O=C(O)[C@H](O)[C@@H](O)C(=O)O` returned an IC50 of over 46 µM.
